This is an account of results in US12285393B2, “Roles of modulators of intersectin-Cdc42 signaling in Alzheimer's disease” (priority 2017, dated 2025).

One assay concerns the target T1, Rac1 (Homo sapiens, UniProt P63000).
T1 construct: purchased Cytoskeleton Inc
Put plainly: Rho-GEF IC50 assay (GEF/DH domain-mediated mant-GTP binding). The format is biochemical. How it is done: (§1) Rho-GEF IC50 Assay: Rho-GEF assay (Cytoskeleton Inc., Denver, Colorado, United States of America) was conducted per manufacturer's instructions (λex=360 nm, λem=460 nm). Briefly, a solution (50 μL) of purified Rho GTPase (1 μM) and mant-GTP (1.5 μM) with or without compound (0.001-500 μM) was prepared and the absorbance monitored for 10-30 min to obtain the background/baseline. The addition of purified GEF/DH domain (0.08-0.2 μM) was carried out simultaneously and the absorbance was recorded for 30-45 min. The linear slope following the addition of the GEF was calculated and expressed as percentage of the control and plotted on an IC50 curve.

A further assay addresses T2, RhoA (Homo sapiens, UniProt P61586).
T2 construct: purchased Cytoskeleton Inc
Described as above. The assay is classed as biochemical. The procedure:
as §1

Another assay concerns the target Cdc42 (Homo sapiens, UniProt P60953). Put plainly: Cdc42-GEF-assay, additional compound screening. The assay is classed as biochemical. Also noted: purchased Cytoskeleton Inc. Conditions: percentages of ZCL278 activity normalized to batch; more than 100% = more potent activator; Table 9. How it is done:
as §1
Cdc42 (1 μM) was incubated with mant-GTP (1.5 μM) and varying concentrations of ZCL278, ZCL279, or ZCL367 (5-500 μM). Fluorescent readings were taken every minute for 10 m to acquire the baseline. The GEF/DH domain (0.08-0.2 μM) was added followed by readings taken every minute for another 30 m. The linear phase was calculated from within the time period of 12-22 m. Cdc42 (1 μM) was incubated with mant-GTP (1.5 μM) and varying concentrations of ZCL278, ZCL279, or ZCL367 (5-500 μM). Fluorescent readings were taken every minute for 30 m to monitor the binding of mant-GTP in the absence of GEF/DH domain.
Cdc42-GEF-assays were conducted on additional screening compounds in batches of 9 compounds per batch as described above in Example 2 using ZCL278 and ZCL367 as standards. Screening compounds were taken from the Specs Chemistry Database of 197,000 compounds for small molecule or the National Cancer Institute Compound Library. […] These compounds promote Cdc42-mantGTP binding without GEF. It is possible that these compounds can inhibit Cdc42-mantGTP binding with GEF. […] These compounds appear to have activity like ZCL279. […] However, upon the addition of GEF, the compounds appear to facilitate the binding of mantGTP to Cdc42 (high assay slope, relative to ZCL278)

The test system of assay [1] is 3×Tg-AD mice. Put plainly: Burrowing test. The following applies: 3×Tg AD mouse model; 20 μg/g I.P. once a week, 4 weeks. The format is in vivo. An excerpt:
(§2) Six-month-old C57/BL6 (WT) and 3×Tg-AD mice with an average weight of 24 g from Jackson Laboratory (Bar Harbor, Maine, United States of America) were used. The 3×Tg-AD mice in hybrid 129/C57BL/6 background contain two mutant human transgenes, hAPP harboring Swedish mutation (hAPPswe) and mutant htau (htau301L) under a neuron-specific promoter, and also contain the knock-in mutant presenilin 1 (PS1M146V). See Oddo et al. (2003) Neuron 39:409-421). 3×Tg-AD mice were received from Jackson Laboratory as Psen1 B6:129-Psen1<tmMpm>Tg(APPSwetauP301L)1Lfa/J and the wild type control as SF2: (B6129SF1/J+p+Tyr-c+Mgf-SIJ)F2. All mice were subjected to two weeks of training for familiarizing behavioral test procedures. Subsequently, mice were assayed to establish a baseline of behavior tests before ZCL compound treatment. Then, mice were separated into three treatment groups (Control, ZCL278 and ZCL279). Both ZCL278 and ZCL279 were dissolved in sesame oil with 5% DMSO and each treatment was administrated via an intraperitoneal injection. All treatment groups of mice were treated once a week. Control group was treated with 130 μl 5% DMSO in sesame oil. […]
Burrowing test: At least 2.5 hours before the start of the dark cycle (4:30 pm), mice from each selected treatment group were housed in individual cages. […] After 2 hours, the food left in the tube was measured.

In assay [2] the test system is 3×Tg-AD mice. Put plainly: Nesting test. The format is in vivo. The following applies: 3×Tg AD mouse model; 20 μg/g I.P. once a week, 4 weeks. An excerpt:
Six-month-old C57/BL6 (WT) and 3×Tg-AD mice with an average weight of 24 g from Jackson Laboratory (Bar Harbor, Maine, United States of America) were used. The 3×Tg-AD mice in hybrid 129/C57BL/6 background contain two mutant human transgenes, hAPP harboring Swedish mutation (hAPPswe) and mutant htau (htau301L) under a neuron-specific promoter, and also contain the knock-in mutant presenilin 1 (PS1M146V). See Oddo et al. (2003) Neuron 39:409-421). 3×Tg-AD mice were received from Jackson Laboratory as Psen1 B6:129-Psen1<tmMpm>Tg(APPSwetauP301L)1Lfa/J and the wild type control as SF2: (B6129SF1/J+p+Tyr-c+Mgf-SIJ)F2. All mice were subjected to two weeks of training for familiarizing behavioral test procedures. […]
Nesting test: Similar to the burrowing test, 2.5 hours before the start of the dark cycle, mice were housed singly in cages containing one 5 cm square of pressed cotton (‘Nestlet’, which the mice normally received as part of their environmental enrichment) with which to make a nest. The condition of each nest was assessed after 2 hours, according to a four-point scale as follows: • 1=Nestlet not noticeably touched (>90% intact). • 2=Nestlet partially tom up (70-90% remaining intact). • 3=Mostly shredded but often no identifiable nest site (<50% remaining intact). • 4=An identifiable nest (<10% remaining intact).

Assay [3] relates to 3×Tg-AD mice. Put plainly: Morris water maze test. The assay is classed as in vivo.
Excerpt: as §2, with “ZCL279).” for “ZCL279). Both ZCL278 and ZCL279 were dissolved in sesame oil with 5% DMSO and each treatment was administrated via an intraperitoneal injection. All treatment groups of mice were treated once a week. Control group was treated with 130 μl 5% DMSO in sesame oil.”
Mice were trained to swim to a 14 cm diameter circular clear Plexiglas platform submerged 1.5 cm beneath the surface of the water and invisible to the mice while swimming. […] Retention of the spatial training was assessed at 1.5 hr and again at 24 hr after the last training trial. […] Mice were monitored by a camera mounted in the ceiling directly above the pool, and all trials were stored on videotape for subsequent analysis.

T2 sequence (P61586 whole entry): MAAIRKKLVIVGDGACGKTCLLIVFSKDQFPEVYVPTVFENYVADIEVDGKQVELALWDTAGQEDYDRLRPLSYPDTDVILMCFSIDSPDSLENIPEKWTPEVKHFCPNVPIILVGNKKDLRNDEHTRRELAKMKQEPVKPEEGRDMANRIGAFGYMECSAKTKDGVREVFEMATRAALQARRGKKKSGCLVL
Chain of Cdc42 (P60953 whole entry): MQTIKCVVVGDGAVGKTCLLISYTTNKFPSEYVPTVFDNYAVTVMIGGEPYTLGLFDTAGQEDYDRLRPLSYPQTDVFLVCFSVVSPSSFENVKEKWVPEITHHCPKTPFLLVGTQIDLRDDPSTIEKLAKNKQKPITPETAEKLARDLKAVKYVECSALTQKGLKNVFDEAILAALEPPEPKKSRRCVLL

`Cc1cc(C)nc(NS(=O)(=O)c2ccc(NC(=S)NC(=O)COc3ccc(Br)cc3Cl)cc2)n1` [ZCL278, 4-(3-(2-(4-bromo-2-chloro-phenoxy)-acetyl)-thioureido)-N-(4,6-dimethylpyrimidin-2-yl)-benzenesulfonamide]: the IC50 at Rac1 and at RhoA was no less than 500 µM in each case. The “% ZCL278 (activator activity)” value on Cdc42 is listed as 100%.
Take `O=S(=O)(Nc1ccccc1O)c1ccc2oc3ccc(S(=O)(=O)Nc4ccccc4O)cc3c2c1` [ZCL279, N^2,N^8-bis(2-hydroxyphenyl)dibenzo[b,d]furan-2,8-disulfonamide]: the “instinctual behavior: food burrowing” value with 3×Tg-AD mice [1] is recorded as “improve instinctual behavior”. Besides, the “instinctual behavior: nesting behavior” value in the assay on 3×Tg-AD mice [2] is recorded as “improve instinctual behavior”. The “spatial memory ability compared with WT mice” value with 3×Tg-AD mice [3] (3×Tg AD mice, Day 4) is “appeared similar to WT mice”. Also, the “spatial memory ability (latency in finding the submerged platform)” value in the assay with 3×Tg-AD mice [3] (AD mouse model) is “improves spatial memory ability”.
